Common to all, as to format: binding
The target in test [1] is T1, mTOR (Homo sapiens, UniProt P42345).
T1 construct: endogenous in cells; host or cells: Jurkat cells (ATCC TIB-152, clone E6-1), lysate
Nature of the test: mTOR kinobeads assay (dot blot detection). The protocol: (§1) The compounds of the present invention as described were tested in the mTOR kinobeads assay as described below. Briefly, test compounds (at various concentrations) and the affinity matrix (1:1 mixture of beads with immobilized phenylthiazole ligand 1 and beads with immobilized phenylmorpholin-chromen ligand; WO 2009/098021) were added to cell lysate aliquots and allowed to bind to the proteins in the lysate sample. After the incubation time the beads with captured proteins were separated from the lysate. Bound proteins were then eluted and the presence of mTOR, PI3K delta (PI3 Kd) and DNA-dependent protein kinase (DNA-PK) was detected and quantified using a specific antibody in a dot blot procedure and the Odyssey infrared detection system. Dose response curves for individual kinases were generated and IC50 values calculated. Kinobeads assays for PI3 kinases (WO-A 2008/015013) and for kinase selectivity profiling (WO 2009/098021) have been previously described.
(§2) The affinity matrix (beads with immobilized phenylmorpholin-chromen ligand) was washed two times with 15 ml of 1×DP buffer containing 0.2% NP40 (IGEPAL® CA-630, Sigma, #13021) and then resupended in 5.5 ml of 1×DP buffer containing 0.2% NP40 (10% beads slurry).
(§3) 5×DP buffer: 250 mM Tris-HCl pH 7.4, 25% Glycerol, 7.5 mM MgCl2, 750 mM NaCl, 5 mM Na3VO4, filter the 5×-lysis buffer through 0.22 μm filter and store in aliquots at −80° C. The 5×DP buffer is diluted to 1×DP buffer containing 1 mM DTT and 25 mM NaF.
(§4) Stock solutions of test compounds were prepared in DMSO. In a 96 well plate 30 μl solution of diluted test compounds at 5 mM in DMSO were prepared. Starting with this solution a 1:3 dilution series (9 steps) was prepared. For control experiments (no test compound) a buffer containing 2% DMSO was used. Compound CZC00018052 served as a positive control (PI-103; Calbiochem catalogue number 528100).
(§5) Jurkat cells (ATCC catalogue number TIB-152 Jurkat, clone E6-1) were grown in 1 litre Spinner flasks (Integra Biosciences, #182101) in suspension in RPMI 1640 medium (Invitrogen, #21875-034) supplemented with 10% Fetal Bovine Serum (Invitrogen) at a density between 0.15×10^6 and 1.2×10^6 cells/ml. Cells were harvested by centrifugation, washed once with 1×PBS buffer (Invitrogen, #14190-094) and cell pellets were frozen in liquid nitrogen and subsequently stored at −80° C.
(§6) Jurkat cells were homogenized in a Potter S homogenizer in lysis buffer: 50 mM Tris-HCl, 0.8% NP40, 5% glycerol, 150 mM NaCl, 1.5 mM MgCl2, 25 mM NaF, 1 mM sodium vanadate, 1 mM DTT, pH 7.5. One complete EDTA-free tablet (protease inhibitor cocktail, Roche Diagnostics, 1873580) per 25 ml buffer was added. The material was dounced 10 times using a mechanized POTTER S, transferred to 50 ml falcon tubes, incubated for 30 minutes on ice and spun down for 10 min at 20,000 g at 4° C. (10,000 rpm in Sorvall SLA600, precooled). The supernatant was transferred to an ultracentrifuge (UZ)-polycarbonate tube (Beckmann, 355654) and spun for 1 hour at 100.000 g at 4° C. (33.500 rpm in Ti50.2, precooled). The supernatant was transferred again to a fresh 50 ml falcon tube, the protein concentration was determined by a Bradford assay (BioRad) and samples containing 50 mg of protein per aliquot were prepared. The samples were immediately used for experiments or frozen in liquid nitrogen and stored frozen at −80° C.
(§7) Jurkat cell lysate (approximately 50 mg protein per plate) was thawed in a water bath at room temperature and then kept on ice. To the thawed cell lysate 1×DP 0.8% NP40 buffer containing protease inhibitors (1 tablet for 25 ml buffer; EDTA-free protease inhibitor cocktail; Roche Diagnostics 1873580) was added in order to reach a final protein concentration of 5 mg/ml total protein. The diluted cell lysate was stored on ice. […]

In test [2] the target is T2, DNA-dependent protein kinase (DNA-PK) (Homo sapiens, UniProt P78527).
T2 construct: endogenous in cells; host or cells: Jurkat cells (ATCC TIB-152, clone E6-1), lysate
The experiment in a line: kinobeads assay, DNA-PK (dot blot detection). On the procedure:
as §1, §2, §3, §4, §5, §6, §7

Test [3] concerns the target T3, PI3K delta (PI3Kd) (Homo sapiens, UniProt O00329).
T3 construct: endogenous in cells; host or cells: Jurkat cells (ATCC TIB-152, clone E6-1), lysate
Nature of the test: kinobeads assay, PI3K delta (dot blot detection). The protocol:
as §1, §2, §3, §4, §5, §6, §7

Where [4] appears, read: Table 2, Jurkat cell lysate, read-out: Inhibition values (IC50) mTor.
Setting [5] is: Table 4, read-out: Inhibition values (IC50) mTOR.
[6] abbreviates: Table 2, Jurkat cell lysate, read-out: Inhibition values (IC50) DNAPK.
Setting [7] is: Table 4, read-out: Inhibition values (IC50) DNAPK.
Setting [8] is: Table 2, Jurkat cell lysate, read-out: Inhibition values (IC50) PI3Kd.
Where [9] appears, read: Table 4, read-out: Inhibition values (IC50) PI3Kd.

Read-outs that look alike come from different tables or passages of the source.

As usually defined, the IC50 is the concentration that gives 50% inhibition.

T2 sequence (P78527 whole entry): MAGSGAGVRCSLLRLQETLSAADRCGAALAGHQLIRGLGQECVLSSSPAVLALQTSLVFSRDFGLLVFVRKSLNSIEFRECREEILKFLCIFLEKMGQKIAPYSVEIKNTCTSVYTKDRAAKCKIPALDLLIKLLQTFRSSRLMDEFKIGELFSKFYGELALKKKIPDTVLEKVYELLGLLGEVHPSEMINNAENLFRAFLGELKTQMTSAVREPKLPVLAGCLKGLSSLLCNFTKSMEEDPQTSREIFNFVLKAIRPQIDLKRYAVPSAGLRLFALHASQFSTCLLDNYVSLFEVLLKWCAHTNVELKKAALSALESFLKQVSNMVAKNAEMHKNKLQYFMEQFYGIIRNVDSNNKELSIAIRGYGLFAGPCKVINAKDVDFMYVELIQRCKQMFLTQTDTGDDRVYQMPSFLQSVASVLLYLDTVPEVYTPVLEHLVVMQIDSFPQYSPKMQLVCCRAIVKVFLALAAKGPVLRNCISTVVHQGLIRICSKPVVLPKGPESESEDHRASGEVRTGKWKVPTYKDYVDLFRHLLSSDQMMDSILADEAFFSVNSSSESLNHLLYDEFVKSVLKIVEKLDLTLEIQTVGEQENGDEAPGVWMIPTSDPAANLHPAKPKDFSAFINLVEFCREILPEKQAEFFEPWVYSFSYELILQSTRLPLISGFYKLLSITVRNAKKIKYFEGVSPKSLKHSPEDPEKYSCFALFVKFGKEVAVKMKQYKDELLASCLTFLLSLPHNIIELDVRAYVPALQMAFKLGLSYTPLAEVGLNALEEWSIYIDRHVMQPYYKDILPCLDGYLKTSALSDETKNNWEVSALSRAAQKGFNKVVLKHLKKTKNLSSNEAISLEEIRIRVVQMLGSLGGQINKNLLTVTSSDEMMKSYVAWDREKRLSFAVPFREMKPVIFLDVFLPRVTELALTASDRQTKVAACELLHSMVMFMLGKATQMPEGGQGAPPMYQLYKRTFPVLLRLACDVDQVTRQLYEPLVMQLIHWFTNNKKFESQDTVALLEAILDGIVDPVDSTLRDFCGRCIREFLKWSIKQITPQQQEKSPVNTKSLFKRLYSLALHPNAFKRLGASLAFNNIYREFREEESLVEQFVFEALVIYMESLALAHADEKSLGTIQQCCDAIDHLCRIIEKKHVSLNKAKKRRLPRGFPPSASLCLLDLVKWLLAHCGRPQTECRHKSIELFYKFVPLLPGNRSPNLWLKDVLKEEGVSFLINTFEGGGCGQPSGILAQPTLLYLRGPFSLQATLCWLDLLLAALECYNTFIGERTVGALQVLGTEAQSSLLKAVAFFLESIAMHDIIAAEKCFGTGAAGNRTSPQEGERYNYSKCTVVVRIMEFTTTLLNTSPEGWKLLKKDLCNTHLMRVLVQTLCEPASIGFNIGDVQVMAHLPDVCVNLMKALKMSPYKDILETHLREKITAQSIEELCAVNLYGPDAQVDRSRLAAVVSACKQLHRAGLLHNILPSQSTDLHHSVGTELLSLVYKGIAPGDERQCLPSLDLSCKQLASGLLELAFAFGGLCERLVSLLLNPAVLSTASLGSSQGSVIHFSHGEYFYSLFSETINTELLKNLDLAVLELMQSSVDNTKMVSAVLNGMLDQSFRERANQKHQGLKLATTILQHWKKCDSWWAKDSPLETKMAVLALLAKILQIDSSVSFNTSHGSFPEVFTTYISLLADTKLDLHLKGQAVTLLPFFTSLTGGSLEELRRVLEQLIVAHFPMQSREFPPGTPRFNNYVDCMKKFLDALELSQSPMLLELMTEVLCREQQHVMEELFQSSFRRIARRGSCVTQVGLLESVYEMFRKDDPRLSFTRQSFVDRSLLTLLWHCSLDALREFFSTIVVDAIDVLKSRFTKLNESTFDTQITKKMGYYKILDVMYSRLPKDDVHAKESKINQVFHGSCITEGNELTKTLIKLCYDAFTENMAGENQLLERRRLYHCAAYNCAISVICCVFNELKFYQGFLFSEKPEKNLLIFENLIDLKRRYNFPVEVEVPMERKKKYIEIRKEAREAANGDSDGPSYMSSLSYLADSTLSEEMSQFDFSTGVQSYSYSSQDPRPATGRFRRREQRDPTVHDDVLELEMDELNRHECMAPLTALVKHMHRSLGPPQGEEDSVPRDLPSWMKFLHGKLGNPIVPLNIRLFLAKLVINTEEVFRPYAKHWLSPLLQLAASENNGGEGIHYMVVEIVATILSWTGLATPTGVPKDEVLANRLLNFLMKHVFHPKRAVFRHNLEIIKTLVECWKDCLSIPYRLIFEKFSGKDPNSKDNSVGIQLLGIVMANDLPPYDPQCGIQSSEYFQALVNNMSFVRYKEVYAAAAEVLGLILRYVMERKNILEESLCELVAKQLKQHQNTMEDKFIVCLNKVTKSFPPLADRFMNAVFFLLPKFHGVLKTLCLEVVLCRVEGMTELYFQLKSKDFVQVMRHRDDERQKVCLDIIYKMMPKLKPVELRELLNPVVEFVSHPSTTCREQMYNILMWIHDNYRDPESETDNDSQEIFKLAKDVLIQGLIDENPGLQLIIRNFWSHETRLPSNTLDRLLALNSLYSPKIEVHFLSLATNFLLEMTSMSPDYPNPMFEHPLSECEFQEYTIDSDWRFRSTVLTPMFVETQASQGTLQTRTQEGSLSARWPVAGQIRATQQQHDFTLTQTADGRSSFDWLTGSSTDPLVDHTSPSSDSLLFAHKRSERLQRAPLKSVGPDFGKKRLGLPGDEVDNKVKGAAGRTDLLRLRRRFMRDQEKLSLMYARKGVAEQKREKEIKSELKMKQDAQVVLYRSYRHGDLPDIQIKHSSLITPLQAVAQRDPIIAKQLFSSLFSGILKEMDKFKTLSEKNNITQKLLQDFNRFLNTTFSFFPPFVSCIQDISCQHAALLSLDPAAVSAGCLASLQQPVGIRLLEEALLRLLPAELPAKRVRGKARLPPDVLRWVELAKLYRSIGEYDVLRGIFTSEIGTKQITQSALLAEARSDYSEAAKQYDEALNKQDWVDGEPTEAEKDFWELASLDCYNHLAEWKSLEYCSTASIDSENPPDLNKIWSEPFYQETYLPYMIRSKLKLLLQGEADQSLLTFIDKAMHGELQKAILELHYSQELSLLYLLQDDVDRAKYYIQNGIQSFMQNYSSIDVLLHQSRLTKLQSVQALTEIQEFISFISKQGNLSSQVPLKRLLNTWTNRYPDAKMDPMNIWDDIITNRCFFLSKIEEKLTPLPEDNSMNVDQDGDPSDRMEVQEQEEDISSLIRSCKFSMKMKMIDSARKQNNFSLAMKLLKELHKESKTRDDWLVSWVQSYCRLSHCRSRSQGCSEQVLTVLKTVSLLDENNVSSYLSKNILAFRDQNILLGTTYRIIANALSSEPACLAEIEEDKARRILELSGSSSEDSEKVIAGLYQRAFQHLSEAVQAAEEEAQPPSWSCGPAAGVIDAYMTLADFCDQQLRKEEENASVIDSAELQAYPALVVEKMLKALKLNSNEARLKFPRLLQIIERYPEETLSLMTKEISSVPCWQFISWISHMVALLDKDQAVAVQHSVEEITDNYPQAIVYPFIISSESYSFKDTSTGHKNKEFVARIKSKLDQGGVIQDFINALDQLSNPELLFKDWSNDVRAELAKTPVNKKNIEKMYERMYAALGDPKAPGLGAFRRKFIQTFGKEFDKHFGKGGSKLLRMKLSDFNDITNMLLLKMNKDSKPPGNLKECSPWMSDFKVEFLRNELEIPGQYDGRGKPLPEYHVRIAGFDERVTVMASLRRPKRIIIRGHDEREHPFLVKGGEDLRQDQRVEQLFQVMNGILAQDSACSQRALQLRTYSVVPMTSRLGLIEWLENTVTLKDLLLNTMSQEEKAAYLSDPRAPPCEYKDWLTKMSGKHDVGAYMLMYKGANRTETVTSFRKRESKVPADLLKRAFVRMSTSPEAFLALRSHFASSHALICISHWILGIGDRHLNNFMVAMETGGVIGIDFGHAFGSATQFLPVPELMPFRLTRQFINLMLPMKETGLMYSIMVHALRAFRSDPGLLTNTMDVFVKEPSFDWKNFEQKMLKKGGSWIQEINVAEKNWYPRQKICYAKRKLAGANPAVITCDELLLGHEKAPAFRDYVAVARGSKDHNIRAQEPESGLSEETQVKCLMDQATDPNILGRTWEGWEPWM

Turning to `CNC(=O)Nc1ccc(-c2nccc(N3CCOCC3)n2)cc1` [Example 27, 1-methyl-3-(4-(4-morpholinopyrimidin-2-yl)phenyl)urea], the IC50 in test [1] (setting [4]), in test [1] (setting [5]), in test [2] (setting [6]), in test [2] (setting [7]), in test [3] (setting [8]) and in test [3] (setting [9]) was 1 to 10 µM throughout.
In the case of `CCNC(=O)Nc1ccc(-c2cc(-c3ccccc3NS(C)(=O)=O)nc(N3CCOC[C@@H]3C)n2)cc1` [Example 9, (S)—N-(2-(6-(4-(3-ethylureido)phenyl)-2-(3-methylmorpholino)pyrimidin-4-yl)phenyl)methanesulfonamide], the half-maximal inhibitory concentration (IC50) in test [1] (setting [4]) was 1 to 10 µM; in test [1] (setting [5]) it was 1 to 10 µM; in test [2] (setting [6]), not below 10 µM; in test [2] (setting [7]) it was not below 10 µM; in test [3] (setting [8]), not below 10 µM; in test [3] (setting [9]) it was not below 10 µM.
In the case of `C[C@H]1COCCN1c1cc(-c2cccc(S(C)(=O)=O)c2)nc(-c2ccc(NC(=O)NC3CC3)cc2)n1` [Example 5, (S)-1-cyclopropyl-3-(4-(4-(3-methylmorpholino)-6-(3-(methylsulfonyl)phenyl)pyrimidin-2-yl)phenyl)urea], the IC50 in test [1] (setting [4]) is 1 to 10 µM; in test [1] (setting [5]), 1 to 10 µM; in test [2] (setting [6]), not below 10 µM; in test [2] (setting [7]), not below 10 µM; in test [3] (setting [8]) it was not below 10 µM; in test [3] (setting [9]), not below 10 µM.
Turning to `CCNC(=O)Nc1ccc(-c2cc(-c3ccccc3C(=O)O)nc(N3CCOC[C@@H]3C)n2)cc1` [Example 11, (S)-2-(6-(4-(3-ethylureido)phenyl)-2-(3-methylmorpholino)pyrimidin-4-yl)benzoic acid], the IC50 in test [1] (setting [4]) was 1 to 10 µM; in test [1] (setting [5]), 1 to 10 µM; in test [2] (setting [6]), not below 10 µM; in test [2] (setting [7]) it was not below 10 µM; in test [3] (setting [8]) it was not below 10 µM; in test [3] (setting [9]) it was not below 10 µM.
On to `NC(=O)Nc1ccc(-c2nccc(N3CCOCC3)n2)cc1` [Example 33, 1-(4-(4-morpholinopyrimidin-2-yl)phenyl)urea], for which the IC50 in test [1] (setting [4]), in test [1] (setting [5]), in test [2] (setting [6]), in test [2] (setting [7]), in test [3] (setting [8]) and in test [3] (setting [9]) was 1 to 10 µM throughout.
With `CCCNC(=O)Nc1ccc(-c2ccnc(N3CCOCC3)n2)cc1` [Example 31, 1-propyl-3-(4-(2-morpholinopyrimidin-4-yl)phenyl)urea], the IC50 in test [1] (setting [4]) was 1 to 10 µM; in test [1] (setting [5]), 1 to 10 µM; in test [2] (setting [6]) it was 1 to 10 µM; in test [2] (setting [7]), 1 to 10 µM; in test [3] (setting [8]) it was not below 10 µM; in test [3] (setting [9]), not below 10 µM.
Consider `CCNC(=O)Nc1ccc(-c2cc(-c3ccccc3C(N)=O)nc(N3CCOC[C@@H]3C)n2)cc1` [Example 12, (S)-2-(6-(4-(3-ethylureido)phenyl)-2-(3-methylmorpholino)pyrimidin-4-yl)benzamide], for which the IC50 in test [1] (setting [4]) was 1 to 10 µM; in test [1] (setting [5]), 1 to 10 µM; in test [2] (setting [6]), not below 10 µM; in test [2] (setting [7]), not below 10 µM; in test [3] (setting [8]), not below 10 µM; in test [3] (setting [9]), not below 10 µM.
Regarding `O=C(Nc1ccc(-c2cc(-c3cccnc3)nc(N3CCOCC3)n2)cc1)NC1CC1` [Example 1, 1-cyclopropyl-3-(4-(2-morpholino-6-(pyridin-3-yl)pyrimidin-4-yl)phenyl)urea], the IC50 in test [1] (setting [4]) was 1 to 10 µM; in test [1] (setting [5]), 1 to 10 µM; in test [2] (setting [6]) it was not below 10 µM; in test [2] (setting [7]) it was not below 10 µM; in test [3] (setting [8]), not below 10 µM; in test [3] (setting [9]), not below 10 µM.
Take `CCNC(=O)Nc1ccc(-c2cc(-c3ccncc3)nc(N3CCOC[C@@H]3C)n2)cc1` [Example 13, (S)-1-ethyl-3-(4-(2-(3-methylmorpholino)-6-(pyridin-4-yl)pyrimidin-4-yl)phenyl)urea]: the IC50 in test [1] (setting [4]) was 1 to 10 µM; in test [1] (setting [5]), 1 to 10 µM; in test [2] (setting [6]), not below 10 µM; in test [2] (setting [7]) it was not below 10 µM; in test [3] (setting [8]) it was not below 10 µM; in test [3] (setting [9]), not below 10 µM.
On to `CCNC(=O)Nc1ccc(-c2cc(-c3ccccc3NC(C)=O)nc(N3CCOC[C@@H]3C)n2)cc1` [Example 10, (S)—N-(2-(6-(4-(3-ethylureido)phenyl)-2-(3-methylmorpholino)pyrimidin-4-yl)phenyl)acetamide], for which the IC50 was 1 to 10 µM in test [1] (setting [4]); 1 to 10 µM in test [1] (setting [5]); not below 10 µM in test [2] (setting [6]); not below 10 µM in test [2] (setting [7]); not below 10 µM in test [3] (setting [8]); not below 10 µM in test [3] (setting [9]).
For the compound `CCNC(=O)Nc1ccc(-c2cc(-c3ccccc3S(=O)(=O)NC)nc(N3CCOCC3)n2)cc1` [Example 19, 2-(6-(4-(3-ethylureido)phenyl)-2-morpholinopyrimidin-4-yl)-N-methylbenzenesulfonamide], the IC50 in test [1] (setting [4]) is 1 to 10 µM; in test [1] (setting [5]) it was 1 to 10 µM; in test [2] (setting [6]), not below 10 µM; in test [2] (setting [7]) it was not below 10 µM; in test [3] (setting [8]), not below 10 µM; in test [3] (setting [9]), not below 10 µM.
Regarding `CCNC(=O)Nc1ccc(-c2nccc(N3CCOCC3)n2)cc1` [Example 36, 1-ethyl-3-(4-(4-morpholinopyrimidin-2-yl)phenyl)urea], the IC50 is 1 to 10 µM in test [1] (setting [4]); 1 to 10 µM in test [1] (setting [5]); 1 to 10 µM in test [2] (setting [6]); 1 to 10 µM in test [2] (setting [7]); not below 10 µM in test [3] (setting [8]); not below 10 µM in test [3] (setting [9]).
With `CCNC(=O)Nc1ccc(-c2cc(-c3ccccc3S(C)(=O)=O)nc(N3CCOCC3)n2)cc1` [Example 20, 1-ethyl-3-(4-(6-(2-(methylsulfonyl)phenyl)-2-morpholinopyrimidin-4-yl)phenyl)urea], the IC50 in test [1] (setting [4]) is 1 to 10 µM; in test [1] (setting [5]), 1 to 10 µM; in test [2] (setting [6]), not below 10 µM; in test [2] (setting [7]), not below 10 µM; in test [3] (setting [8]), not below 10 µM; in test [3] (setting [9]) it was not below 10 µM.
As for `CCCNC(=O)Nc1ccc(-c2nccc(N3CCOCC3)n2)cc1` [Example 32, 1-(4-(4-morpholinopyrimidin-2-yl)phenyl)-3-propylurea], the IC50 in test [1] (setting [4]) is 1 to 10 µM; in test [1] (setting [5]), 1 to 10 µM; in test [2] (setting [6]) it was 1 to 10 µM; in test [2] (setting [7]), 1 to 10 µM; in test [3] (setting [8]) it was not below 10 µM; in test [3] (setting [9]) it was not below 10 µM.
With `CCNC(=O)Nc1ccc(-c2cc(-c3ccccc3CO)nc(N3CCOC[C@@H]3C)n2)cc1` [Example 16, (S)-1-ethyl-3-(4-(6-(2-(hydroxymethyl)phenyl)-2-(3-methylmorpholino)pyrimidin-4-yl)phenyl)urea], the IC50 was 1 to 10 µM in test [1] (setting [4]); 1 to 10 µM in test [1] (setting [5]); not below 10 µM in test [2] (setting [6]); not below 10 µM in test [2] (setting [7]); not below 10 µM in test [3] (setting [8]); not below 10 µM in test [3] (setting [9]).
On to `CCNC(=O)Nc1ccc(-c2cc(-c3cc[nH]n3)nc(N3CCOC[C@@H]3C)n2)cc1` [Example 18, (S)-1-ethyl-3-(4-(2-(3-methylmorpholino)-6-(1H-pyrazol-3-yl)pyrimidin-4-yl)phenyl)urea], for which the IC50 in test [1] (setting [4]) was 1 to 10 µM; in test [1] (setting [5]), 1 to 10 µM; in test [2] (setting [6]), not below 10 µM; in test [2] (setting [7]) it was not below 10 µM; in test [3] (setting [8]) it was not below 10 µM; in test [3] (setting [9]), not below 10 µM.

These data come from US9249129B2, “Morpholino substituted urea derivatives as mTOR inhibitors” (CELLZOME LIMITED, priority 2010, dated 2016).
